The values that follow come from ChEMBL document CHEMBL4261597, “1,2,3-Triazole fused with pyridine/pyrimidine as new template for antimicrobial agents: Regioselective synthesis and identification of potent N-heteroarenes” (2018).

Activity calls are given as the source filed them. The calls are words filed in the database; no cut-off is given here.

Assay [1] concerns Fusarium. Description: Antifungal activity against Fusarium recini assessed as zone of inhibition at 10 ug after 48 hrs. To be noted: read-out: DIZ. It counts as functional.
Assay [2] relates to Escherichia coli. Kind of assay: Antibacterial activity against Escherichia coli assessed as zone of inhibition at 10 ug after 24 hrs. It counts as functional. To be noted: for zone of inhibition at 10 µg/disc: read-out: DIZ.
Assay [3] deals with Fusarium oxysporum. Kind of assay: Antifungal activity against Fusarium oxysporum lycopersici after 48 hrs. It counts as functional, Fusarium oxysporum f. sp. lycopersici.
Assay [4] has as its system Fusarium. Kind of assay: Antifungal activity against Fusarium recini after 48 hrs. It counts as functional.
Assay [5] has as its system Fusarium oxysporum. Kind of assay: Antifungal activity against Fusarium oxysporum lycopersici assessed as zone of inhibition at 10 ug after 48 hrs. Particulars: read-out: DIZ. It counts as functional, Fusarium oxysporum f. sp. lycopersici.
Assay [6] relates to Bacillus subtilis. Kind of assay: Antibacterial activity against Bacillus subtilis assessed as zone of inhibition at 10 ug after 24 hrs. To be noted: for zone of inhibition at 10 µg/disc: read-out: DIZ. It counts as functional.
In assay [7] the test system is Escherichia coli. Description: Antibacterial activity against Escherichia coli at 25 to 100 ug after 24 hrs. Format: functional, organism-based.
Assay [8] concerns Bacillus subtilis. Kind of assay: Antibacterial activity against Bacillus subtilis at 25 to 100 ug after 24 hrs. It counts as functional, organism-based.
Assay [9] relates to Escherichia coli. Kind of assay: Antibacterial activity against Escherichia coli after 24 hrs. It counts as functional.
Assay [10] has as its system Bacillus subtilis. Kind of assay: Antibacterial activity against Bacillus subtilis after 24 hrs. Format: functional.

Turning to `COc1ccc(-n2nnc3cccnc32)cc1`, the zone of inhibition at 10 µg/disc in assay [1] is 3 mm; in [5], 2 mm. The “diameter of the inhibition zone (DIZ)” value in assay [2] and in assay [6] was “inactive” throughout. The MIC amounted to 100 µg in assay [3] and 50 µg in [4].
`COc1ccc(-n2nnc3cnc(Cl)cc32)cc1`: the zone of inhibition at 10 µg/disc in assay [1] is 7 mm; in assay [5] it was 6 mm. In addition, the “diameter of the inhibition zone (DIZ)” value in assay [2] and in assay [6] was “inactive” in each case. Also, the MIC in assay [3] turned out to be 50 µg; in [4], 25 µg.
Regarding `Clc1cc2c(cn1)nnn2C1CCOCC1`, the zone of inhibition at 10 µg/disc in [1] and in assay [5] was 6 mm each time. Further, the “diameter of the inhibition zone (DIZ)” value in assay [2] and in [6] was “inactive” each time. For the same compound, the MIC in assay [3] turned out to be 50 µg; in assay [4], 25 µg.
Turning to `c1cnc2c(c1)nnn2C1CCOCC1`, the zone of inhibition at 10 µg/disc worked out at 5 mm in assay [1] and 3 mm in assay [5]. The “diameter of the inhibition zone (DIZ)” value in [2] and in assay [6] was “inactive” in each case. Also, the MIC amounted to 75 µg in [3] and 50 µg in [4].
Turning to `Oc1ncnc2c1nnn2Cc1ccccc1`, the zone of inhibition at 10 µg/disc in assay [1] turned out to be 6 mm; in assay [5], 5 mm. The outcome in assay [7] and in assay [8] was inactive. For the same compound, the “diameter of the inhibition zone (DIZ)” value in assay [2] and in assay [6] was “inactive” throughout. In addition, the MIC worked out at 100 µg in [3] and 50 µg in [4].
Turning to `Fc1ccc(-n2nnc3cnc(Cl)cc32)cc1`, the zone of inhibition at 10 µg/disc was determined as 7 mm in assay [1] and 3 mm in assay [5]. The “diameter of the inhibition zone (DIZ)” value in assay [2] and in assay [6] was “inactive” each time. Moreover, the MIC in assay [3] and in assay [4] was 50 µg throughout.
Consider `Clc1cc2c(cn1)nnn2Cc1ccccc1`, for which the zone of inhibition at 10 µg/disc came to 7 mm in assay [1], 10 mm in [2], 1 mm in assay [5] and 13 mm in assay [6]. Moreover, the MIC in assay [3] was determined as 100 µg; in assay [4], 25 µg; in assay [9], 25 µg; in assay [10], 25 µg.
Regarding `CN[C@@H]1[C@H](O[C@H]2[C@H](O[C@H]3[C@H](O)[C@@H](O)[C@H](N=C(N)N)[C@@H](O)[C@@H]3N=C(N)N)O[C@@H](C)[C@]2(O)C=O)O[C@@H](CO)[C@H](O)[C@H]1O` [STREPTOMYCIN], the values for the zone of inhibition at 10 µg/disc in assay [2] and in assay [6] were 13 mm and 16 mm, respectively. Moreover, the MIC in assay [9] and in assay [10] was 25 µg in each case.
On to `Fc1ccc(-n2nnc3cccnc32)cc1`, for which the zone of inhibition at 10 µg/disc in assay [1] was 5 mm; in assay [2] it was 11 mm; in assay [5] it was 6 mm; in assay [6], 12 mm. For the same compound, the MIC is 75 µg in assay [3], 50 µg in assay [4], 100 µg in [9] and 25 µg in assay [10].
Take `Cc1ccc(-n2nnc3cccnc32)c(C)c1`: the zone of inhibition at 10 µg/disc in [1] and in assay [5] was 6 mm each time. Moreover, the “diameter of the inhibition zone (DIZ)” value in assay [2] and in assay [6] was “inactive” in each case. Moreover, the MIC in assay [3] amounted to 75 µg; in assay [4], 100 µg.
